Source: patent US8198315B2, “Therapeutic substituted cyclic lactams” (Allergan, Inc., priority 2007, dated 2012)

What was measured:
EP2 [1] = target: T1, EP2 (Homo sapiens, UniProt P43116); assay: EP2 flipr assay; format: cell-based
Description: (§1) U.S. patent application Ser. No. 11/553,143, filed on Oct. 26, 2006, incorporated by reference herein, describes the methods used to obtain the in vitro data in the table below.

EP2 [2] = target: T1, EP2; assay: EP2 cAMP assay; format: cell-based
Description: as §1

EP2 [3] = target: T1, EP2; assay: EP2 binding (Ki)
Description: as §1

hEP3A = target: T2, hEP3A (Homo sapiens, UniProt P43115); assay: Other receptors functional assay, hEP3A; format: cell-based
T2 sequence (P43115 1-390): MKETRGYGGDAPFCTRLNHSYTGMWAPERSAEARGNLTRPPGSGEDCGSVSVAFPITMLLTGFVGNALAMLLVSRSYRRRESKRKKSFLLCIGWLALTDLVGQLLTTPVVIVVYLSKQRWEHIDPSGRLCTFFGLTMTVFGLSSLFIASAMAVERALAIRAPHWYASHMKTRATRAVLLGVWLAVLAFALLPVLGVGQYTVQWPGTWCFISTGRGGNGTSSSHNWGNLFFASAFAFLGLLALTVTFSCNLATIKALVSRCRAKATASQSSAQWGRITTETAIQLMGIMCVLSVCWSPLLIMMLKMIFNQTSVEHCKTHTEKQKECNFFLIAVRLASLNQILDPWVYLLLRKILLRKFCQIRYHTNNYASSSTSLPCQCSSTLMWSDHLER
Description: as §1

hTP = target: T3, hTP (Homo sapiens, UniProt P21731); assay: Other receptors functional assay, hTP; format: cell-based
T3 sequence (P21731 1-343): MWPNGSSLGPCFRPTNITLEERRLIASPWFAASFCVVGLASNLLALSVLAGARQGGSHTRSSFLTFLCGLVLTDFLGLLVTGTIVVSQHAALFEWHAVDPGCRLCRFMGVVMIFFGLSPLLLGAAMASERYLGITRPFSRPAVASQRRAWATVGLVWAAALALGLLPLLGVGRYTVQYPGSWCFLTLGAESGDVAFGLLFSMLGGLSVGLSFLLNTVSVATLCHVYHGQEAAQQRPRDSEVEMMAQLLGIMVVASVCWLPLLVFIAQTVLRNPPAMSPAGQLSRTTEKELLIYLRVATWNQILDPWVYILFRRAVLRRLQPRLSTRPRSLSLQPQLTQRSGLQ
Description: as §1

hIP = hIP (Homo sapiens, UniProt P43119); assay: Other receptors functional assay, hIP; format: cell-based
Description: as §1

hDP = target: T4, hDP (Homo sapiens, UniProt Q13258); assay: Other receptors functional assay, hDP; format: cell-based
T4 sequence (Q13258 1-359): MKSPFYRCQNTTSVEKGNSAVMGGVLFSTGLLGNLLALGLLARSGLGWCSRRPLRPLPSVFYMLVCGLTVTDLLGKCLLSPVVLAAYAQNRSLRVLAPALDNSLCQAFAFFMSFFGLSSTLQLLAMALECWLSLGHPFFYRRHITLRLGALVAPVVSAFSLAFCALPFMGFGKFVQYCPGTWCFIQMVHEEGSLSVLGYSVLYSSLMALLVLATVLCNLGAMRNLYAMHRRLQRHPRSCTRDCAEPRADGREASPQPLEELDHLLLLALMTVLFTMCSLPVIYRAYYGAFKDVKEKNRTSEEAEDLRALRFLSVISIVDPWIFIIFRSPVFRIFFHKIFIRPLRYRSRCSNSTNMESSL
Description: as §1

EP4 [4] = target: T5, EP4 (Homo sapiens, UniProt P35408); assay: EP4 flipr assay; format: cell-based; details: read-out: EP4 data flip EC50
Description: as §1

EP4 [5] = target: T5, EP4; assay: EP4 binding (Ki)
Description: as §1

normotensive dogs [6] = assay: Intraocular pressure in normotensive dogs; format: in vivo, dog; details: once daily for 5 days, at 78 h
Protocol: (§2) U.S. Pat. No. 7,091,231 describes the methods used to carry out the tests reported below.
(§3) 5-[(R)-1-((S)-3-Hydroxyoctyl)-5-oxopyrrolidin-2-ylmethoxymethyl]-thiophene-2-carboxylic isopropyl ester was tested in normotensive dogs at 2 concentrations, dosing once daily for 5 days. At 0.1%, the maximum intraocular pressure (TOP) decrease from baseline was 8 mmHg (47%) at 78 h; the maximum ocular surface hyperemia (OSH) score was 2.25 at 50 h. At 0.01%, the maximum TOP decrease from baseline was 6.1 mmHg (35%) at 78 h; the maximum OSH score was 1.7 at 30 h. This compound was also tested in laser-induced hypertensive monkeys, using one single day dose. At 0.1%, the maximum TOP decrease from baseline was 17 mmHg (48%) at 6 h.

normotensive dogs [7] = assay: Ocular surface hyperemia in normotensive dogs; format: in vivo, dog; details: once daily for 5 days
Protocol: as §2, §3

[8] = test system: laser-induced hypertensive monkeys; assay: Intraocular pressure in laser-induced hypertensive monkeys; format: in vivo, monkey; details: 0.1%, one single day dose, at 6 h
Protocol: as §2, §3

T1 sequence (P43116 whole entry): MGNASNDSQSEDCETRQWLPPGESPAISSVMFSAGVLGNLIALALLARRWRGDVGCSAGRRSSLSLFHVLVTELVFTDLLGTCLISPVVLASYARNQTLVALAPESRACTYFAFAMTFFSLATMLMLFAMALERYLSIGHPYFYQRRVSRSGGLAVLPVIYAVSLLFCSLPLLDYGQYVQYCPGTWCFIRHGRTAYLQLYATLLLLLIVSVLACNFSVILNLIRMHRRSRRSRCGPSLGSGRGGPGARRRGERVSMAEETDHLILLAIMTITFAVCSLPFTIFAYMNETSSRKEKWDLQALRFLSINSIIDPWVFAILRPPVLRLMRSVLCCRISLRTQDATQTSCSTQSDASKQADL
Sequence of hIP (P43119 whole entry): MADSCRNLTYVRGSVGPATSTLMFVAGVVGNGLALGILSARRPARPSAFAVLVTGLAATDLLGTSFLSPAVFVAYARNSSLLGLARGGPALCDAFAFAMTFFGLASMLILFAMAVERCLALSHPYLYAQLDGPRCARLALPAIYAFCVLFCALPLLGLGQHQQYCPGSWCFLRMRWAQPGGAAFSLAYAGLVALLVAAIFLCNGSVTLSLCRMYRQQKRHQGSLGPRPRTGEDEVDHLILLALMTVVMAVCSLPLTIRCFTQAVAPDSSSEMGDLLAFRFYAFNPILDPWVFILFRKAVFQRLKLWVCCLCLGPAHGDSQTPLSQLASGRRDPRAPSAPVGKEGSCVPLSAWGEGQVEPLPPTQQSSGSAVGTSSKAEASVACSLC
T5 sequence (P35408 whole entry): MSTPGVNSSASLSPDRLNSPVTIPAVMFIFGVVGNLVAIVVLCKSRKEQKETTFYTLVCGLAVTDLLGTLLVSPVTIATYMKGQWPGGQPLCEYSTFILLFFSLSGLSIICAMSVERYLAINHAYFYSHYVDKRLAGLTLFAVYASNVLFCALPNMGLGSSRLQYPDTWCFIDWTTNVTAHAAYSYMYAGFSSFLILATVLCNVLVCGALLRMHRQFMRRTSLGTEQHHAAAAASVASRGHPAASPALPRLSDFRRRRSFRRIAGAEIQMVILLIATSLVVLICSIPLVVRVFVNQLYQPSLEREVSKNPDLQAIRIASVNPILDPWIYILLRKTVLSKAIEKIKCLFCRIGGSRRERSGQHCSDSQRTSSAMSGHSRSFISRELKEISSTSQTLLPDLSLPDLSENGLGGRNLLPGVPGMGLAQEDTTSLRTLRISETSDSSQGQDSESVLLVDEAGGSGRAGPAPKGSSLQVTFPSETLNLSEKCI

| EC50 (EP2 [1]) | EC50 (EP2 [2]) | Ki (EP2 [3]) | EC50 (hEP3A) | EC50 (hTP) | EC50 (hIP) | EC50 (hDP) | EC50 (EP4 [4]) | Ki (EP4 [5]) | maximum ocular surface hyperemia (OSH) score (normotensive dogs [7]; 0.01%, at 30 h) | maximum ocular surface hyperemia (OSH) score (normotensive dogs [7]; 0.1%, at 50 h) | Structure (SMILES) | maximum intraocular pressure decrease from baseline (normotensive dogs [6]; 0.01%) | maximum intraocular pressure decrease from baseline (percent) (normotensive dogs [6]; 0.01%) | maximum intraocular pressure decrease from baseline (normotensive dogs [6]; 0.1%) | maximum intraocular pressure decrease from baseline (percent) (normotensive dogs [6]; 0.1%) | maximum intraocular pressure decrease from baseline [8] | maximum intraocular pressure decrease from baseline (percent) [8] |
| --- | --- | --- | --- | --- | --- | --- | --- | --- | --- | --- | --- | --- | --- | --- | --- | --- | --- |
| > 10000 nM | 20 nM | 1200 nM | > 10000 nM | > 10000 nM | > 10000 nM | 213 nM | – | – | – | – | CCCC1(C(O)CCCN2C(=O)CC[C@@H]2COCc2ccc(C(=O)O)s2)CCC1 (mixture of isomers) [Example 4, 5-{(R)-1-[4-Hydroxy-4-(1-propylcyclobutyl)-butyl]-5-oxopyrrolidin-2-ylmethoxymethyl}-thiophene-2-carboxylic acid] | – | – | – | – | – | – |
| 1570 nM | 19 nM | 2880 nM | 2220 nM | 4890 nM | – | 6.8 nM | 7850 nM | 8720 nM | – | – | CCCCC[C@H](O)CCN1C(=O)CC[C@@H]1COCc1ccc(C(=O)O)s1 [Example 1, 5-[(R)-1-((S)-3-Hydroxyoctyl)-5-oxopyrrolidin-2-ylmethoxymethyl]-thiophene-2-carboxylic acid] | – | – | – | – | – | – |
| – | – | – | 2030 nM | > 10000 nM | > 10000 nM | 194 nM | – | – | – | – | CCCCC[C@H](O)CCN1C(=O)CC[C@@H]1COCc1ccc(C(=O)NS(C)(=O)=O)s1 [Example 2, N-{5-[(R)-1-((S)-3-Hydroxy-octyl)-5-oxopyrrolidin-2-ylmethoxymethyl]-thiophene-2-carbonyl}-methanesulfonamide] | – | – | – | – | – | – |
| – | – | – | – | > 10000 nM | > 10000 nM | > 10000 nM | – | – | – | – | CCCCC[C@H](O)CCN1C(=O)CC[C@@H]1COCc1ccc(C(=O)NCC)s1 [Example 3, 5-[(R)-1-((S)-3-Hydroxy-octyl)-5-oxopyrrolidin-2-ylmethoxymethyl]-thiophene-2-carboxylic acid ethylamide] | – | – | – | – | – | – |
| – | – | – | – | – | – | – | – | – | 1.7 | 2.25 | CCCCC[C@H](O)CCN1C(=O)CC[C@@H]1COCc1ccc(C(=O)OC(C)C)s1 [Example 5, 5-[(R)-1-((S)-3-Hydroxyoctyl)-5-oxopyrrolidin-2-ylmethoxymethyl]-thiophene-2-carboxylic isopropyl ester] | 6.1 mmHg | 35% | 8 mmHg | 47% | 17 mmHg | 48% |
